Values quoted from earlier work as cited in patent publication US5519028A, “Antiviral preparations” (priority 1992, dated 1996).

System: viruses of vaccine
Conditions: intracutaneously 200-600 μg or 2.5-500 mg/day; cited from earlier work

## CCc1ccc2c3[nH]c4ccccc4c3cc[n+]2c1 [flavopereirine]
  appearance and development of vital papules: prevents the appearance and development of vital papules
